Measurements published in patent US20070135499A1 (Aerie Pharmaceuticals, Inc., priority 2005, published 2007).

Columns and labels:
[1] = biological target: T1, hGRK-2 (Homo sapiens, UniProt P25098); test: luciferase-based (Kinase-Glo) biochemical kinase inhibition assay, hGRK-2; settings: luciferase assay, casein substrate, 10 μM ATP; read-out: GRK-2 inhibition, Ki class
T1 sequence (P25098 1-689): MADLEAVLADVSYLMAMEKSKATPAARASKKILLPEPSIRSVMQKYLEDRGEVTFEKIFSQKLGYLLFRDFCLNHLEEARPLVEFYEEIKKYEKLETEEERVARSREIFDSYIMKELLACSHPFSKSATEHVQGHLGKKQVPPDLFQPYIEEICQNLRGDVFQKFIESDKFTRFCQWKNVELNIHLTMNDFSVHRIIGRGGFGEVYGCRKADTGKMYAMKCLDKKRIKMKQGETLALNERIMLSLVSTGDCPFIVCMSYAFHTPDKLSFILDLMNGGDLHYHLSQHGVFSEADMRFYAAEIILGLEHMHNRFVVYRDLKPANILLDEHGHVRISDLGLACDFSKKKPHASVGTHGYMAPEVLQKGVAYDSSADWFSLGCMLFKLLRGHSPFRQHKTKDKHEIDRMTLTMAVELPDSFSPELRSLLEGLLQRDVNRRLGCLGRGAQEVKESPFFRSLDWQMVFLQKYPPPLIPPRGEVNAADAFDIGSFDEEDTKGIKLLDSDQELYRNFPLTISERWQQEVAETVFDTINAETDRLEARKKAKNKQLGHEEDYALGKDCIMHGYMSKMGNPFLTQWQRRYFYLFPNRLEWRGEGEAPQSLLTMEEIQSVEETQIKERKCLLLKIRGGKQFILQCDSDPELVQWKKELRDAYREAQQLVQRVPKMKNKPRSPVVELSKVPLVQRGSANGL
Protocol: (§1) The inhibition of G-protein-coupled receptor kinases including hGRK-2 was determined for the hydrazide compounds using a biochemical assay. The inhibition of GRK-3, GRK-5 and GRK-6 was also determined using the same assay for some of the hydrazide derivatives.
(§2) The protein kinase inhibition was determined using a biochemical assay utilizing the light emission of a luciferase reaction. The luciferase-based assay operates on the following reaction principles: [drawing 10]
(§3) An inhibitor of GRK-2 will increase in the amount of ATP in solution, as shown. Thus, an inhibitor of GRK-2 will drive the luciferase reaction to the right, resulting in more light emitted. The amount of light emitted is proportional to the inhibition resulting from the GRK-2 inhibitor. The luciferase-based assay was also used to test some of the hydrazides for the inhibition properties towards other kinases.
The test procedure was as follows:
• 50 mM HEPES, pH 7.5 • 10 mM MgCl2 • 100 μM activated sodium orthovanadate • 0.01% CHAPS • 0.1% BSA • 1 mM DTT (added fresh daily) 10× Assay Buffer Stock: • 500 mM HEPES, pH 7.5 • 100 mM MgCl2 • 1 mM activated sodium orthovanadate • 0.1% CHAPS • 1% BSA (leave out for 10× compound dilution buffer) Final Assay Conditions: • 50 μM test compound • 20 μM casein • 10 μM ATP • 50 nM hGRK2 • 4.5% DMSO • 90-120 minute incubation
Stopped by addition of 30 μl 3×-diluted Kinase-Glo reagent containing 0.01% trypan blue. Counted on FUSION plate reader.
Compound Dilution and Transfer
Prepare sufficient buffer containing 40% DMSO to add 20 μl/well to the number of plates being assayed. This buffer should not contain BSA because it will precipitate with addition of 40% DMSO. (EXAMPLE: To make 3000 ml compound dilution buffer: 1200 ml DMSO, 180 ml 10× compound dilution buffer, 1615 ml ultrapure water, 3 ml 1M DTT.).
Using Multidrop, add 20 μl of compound dilution buffer to all wells of the 384-well daughter plate (add 1 μl DMSO to control wells). This will result in a daughter plate which contains 21 μl of ˜500 μM test compound.
Using the PlateTrak, transfer 5 μl of the test compounds to a 384-well, non-binding, white microtiter plate.
Prepare sufficient volume of buffer (with BSA and 1 mM DTT) containing 125 nM GRK2 and 25 μM ATP. (Example: To 219 ml of buffer was added 550 μl 10 mM ATP and 350 μl 79 μM GRK2).
Using Multidrop, add 20 μl of GRK2/ATP mixture to all wells of the microtiter plate.
Prepare sufficient volume of buffer (with BSA and 1 mM DTT) containing 40 μM casein. (EXAMPLE: To 211 ml buffer add 8.8 ml 1 mM casein)
Using Multidrop, add 25 μl to columns 1 through 23 of the microtiter plate. Add 25 μl of complete buffer to column 24 (blanks).
Mix reaction gently by tapping (Multidrop addition of casein does a decent job of mixing), stack plates and incubate at room temperature for between 90 and 120 minutes. Assay progression can be tracked in a separate plate if desired. Target 20-30% ATP consumption. Try to avoid exceeding 40% consumption as kinetics might become non-linear due to substrate (ATP) depletion.
Addition of Kinase-Glo Reagents
The Kinase-Glo reagent can be diluted 3-fold with no loss of data quality in this assay. Additionally, since the library contains many colored compounds which will quench the light emitted from the well resulting in a false negative (kinase inhibitors result in less ATP consumption thus more light emitted), the entire reaction is subject to intentional quench to override this effect. This intentional quench is accomplished by the addition of 0.01% trypan blue to the Kinase-Glo reagents. (EXAMPLE: 100 ml 1× Kinase-Glo reagents (prepared according to product insert), 200 ml assay buffer, 7.5 ml 0.4% trypan blue.
Using Multidrop, add 30 μl to all wells of the assay plate.
Count on FUSION plate reader in luminescence mode.

[2] = biological target: T2, GRK-3 (Homo sapiens, UniProt P35626); test: luciferase-based biochemical kinase inhibition assay, GRK-3; settings: same luciferase assay; read-out: GRK-3 inhibition, Ki class
T2 sequence (P35626 1-688): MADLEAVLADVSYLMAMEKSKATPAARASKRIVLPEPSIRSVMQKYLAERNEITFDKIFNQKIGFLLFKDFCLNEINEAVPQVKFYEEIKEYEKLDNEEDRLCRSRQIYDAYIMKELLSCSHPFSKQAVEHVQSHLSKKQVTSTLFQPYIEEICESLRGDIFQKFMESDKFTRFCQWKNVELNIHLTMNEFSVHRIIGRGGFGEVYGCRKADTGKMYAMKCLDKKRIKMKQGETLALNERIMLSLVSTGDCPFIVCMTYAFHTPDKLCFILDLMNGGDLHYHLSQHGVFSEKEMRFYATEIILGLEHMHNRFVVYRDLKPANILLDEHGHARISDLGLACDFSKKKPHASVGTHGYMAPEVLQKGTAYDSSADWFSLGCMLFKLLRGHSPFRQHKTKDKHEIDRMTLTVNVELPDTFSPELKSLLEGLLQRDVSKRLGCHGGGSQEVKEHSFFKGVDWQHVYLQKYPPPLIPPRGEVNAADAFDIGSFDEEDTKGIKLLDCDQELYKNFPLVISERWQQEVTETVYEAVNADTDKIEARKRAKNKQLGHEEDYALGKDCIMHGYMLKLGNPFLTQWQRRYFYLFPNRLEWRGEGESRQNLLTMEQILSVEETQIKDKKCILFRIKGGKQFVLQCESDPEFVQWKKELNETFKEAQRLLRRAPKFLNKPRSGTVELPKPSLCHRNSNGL
Protocol: as §1, §2, §3

[3] = biological target: GRK-5 (Homo sapiens, UniProt P34947); test: luciferase-based biochemical kinase inhibition assay, GRK-5; settings: same luciferase assay; read-out: GRK-5 inhibition, Ki class
GRK-5, sequence (P34947 whole entry, species assumed): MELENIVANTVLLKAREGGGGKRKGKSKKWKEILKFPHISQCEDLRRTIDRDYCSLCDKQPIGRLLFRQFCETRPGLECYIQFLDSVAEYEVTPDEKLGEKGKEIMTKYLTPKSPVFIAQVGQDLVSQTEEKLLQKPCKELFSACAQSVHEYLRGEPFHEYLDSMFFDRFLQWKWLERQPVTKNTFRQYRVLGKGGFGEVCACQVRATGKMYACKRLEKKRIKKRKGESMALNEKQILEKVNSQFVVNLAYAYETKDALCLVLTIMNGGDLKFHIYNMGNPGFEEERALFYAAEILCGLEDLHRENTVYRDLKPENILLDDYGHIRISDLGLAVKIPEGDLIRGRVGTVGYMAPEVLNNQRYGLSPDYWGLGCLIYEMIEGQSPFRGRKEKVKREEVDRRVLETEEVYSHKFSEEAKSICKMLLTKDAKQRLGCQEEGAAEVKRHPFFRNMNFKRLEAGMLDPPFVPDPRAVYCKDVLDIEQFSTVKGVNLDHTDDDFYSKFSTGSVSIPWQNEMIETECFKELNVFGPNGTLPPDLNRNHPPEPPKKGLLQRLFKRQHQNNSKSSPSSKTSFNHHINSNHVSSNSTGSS
Protocol: The inhibition of G-protein-coupled receptor kinases including hGRK-2 was determined for the hydrazide compounds using a biochemical assay. […] The inhibition of GRK-3, GRK-5 and GRK-6 was also determined using the same assay for some of the hydrazide derivatives.
as §2, §3

O=C(CNc1cccc(Cl)c1)N/N=C/c1c(Cl)cncc1Cl [Example 1, (3-Chloro-phenylamino)-acetic acid [1-(3,5-dichloro-pyridin-4-yl)-meth-(E)-ylidene]-hydrazide]
Ki [1]: 1000 to 10000 nM
Ki [2]: 1000 to 10000 nM
Ki [3]: 1000 to 10000 nM

O=C(CNc1cccc(F)c1)N/N=C/c1c(Cl)cncc1Cl [Example 4, (3-Fluoro-phenylamino)-acetic acid [1-(3,5-dichloro-pyridin-4-yl)-meth-(E)-ylidene]-hydrazide]
Ki [1]: 100 to 1000 nM
Ki [2]: 1000 to 10000 nM
Ki [3]: 1000 to 10000 nM

CSc1cccc(NCC(=O)N/N=C/c2c(Cl)cncc2Cl)c1 [Example 10, (3-Methylsulfanyl-phenylamino)-acetic acid [1-(3,5-dichloro-pyridin-4-yl)-meth-(E)-ylidene]-hydrazide]
Ki [1]: 100 to 1000 nM
Ki [2]: 100 to 1000 nM
Ki [3]: 1000 to 10000 nM

CCOc1cccc(NCC(=O)N/N=C/c2c(Cl)cncc2Cl)c1 [Example 21, (3-Ethoxy-phenylamino)-acetic acid [1-(3,5-dichloro-pyridin-4-yl)-meth-(E)-ylidene]-hydrazide]
Ki [1]: 100 to 1000 nM
Ki [2]: > 10000 nM
Ki [3]: > 10000 nM

NS(=O)(=O)c1cccc(NCC(=O)N/N=C/c2c(Cl)cncc2Cl)c1 [Example 22, 3-{[1-(3,5-Dichloro-pyridin-4-yl)-meth-(E)-ylidene-hydrazinocarbonylmethyl]-amino}-benzenesulfonamide]
Ki [1]: 100 to 1000 nM
Ki [2]: 1000 to 10000 nM
Ki [3]: 1000 to 10000 nM

O=C(CNc1cccc(Cl)c1)N/N=C/c1ccncc1 [Example 37, (3-Chloro-phenylamino)-acetic acid [1-pyridin-4-yl-meth-(E)-ylidene]-hydrazide]
Ki [1]: 100 to 1000 nM
Ki [2]: 1000 to 10000 nM
Ki [3]: > 10000 nM

O=C(CNc1cccc(F)c1)N/N=C/c1ccncc1 [Example 40, (3-Fluoro-phenylamino)-acetic acid [1-pyridin-4-yl-meth-(E)-ylidene]-hydrazide]
Ki [1]: 100 to 1000 nM
Ki [2]: 1000 to 10000 nM
Ki [3]: > 10000 nM

O=C(CNc1cccc(Oc2ccc(F)c(F)c2)c1)N/N=C/c1ccncc1 [Example 83, [3-(3,4-Difluoro-phenoxy)-phenylamino]-acetic acid [1-pyridin-4-yl-meth-(E)-ylidene]-hydrazide]
Ki [1]: 100 to 1000 nM

O=C(CNc1cccc(Oc2ccc(F)cc2F)c1)N/N=C/c1ccncc1 [Example 84, [3-(2,4-Difluoro-phenoxy)-phenylamino]-acetic acid [1-pyridin-4-yl-meth-(E)-ylidene]-hydrazide]
Ki [1]: 10 to 100 nM

O=C(CNc1cccc(Oc2cccnc2)c1)N/N=C/c1ccncc1 [Example 86, [3-(Pyridin-3-yloxy)-phenylamino]-acetic acid [1-pyridin-4-yl-meth-(E)-ylidene]-hydrazide]
Ki [1]: 100 to 1000 nM

O=C(CNc1cccc(Cl)c1)N/N=C/c1ccnc2ccccc12 [Example 91, (3-Chloro-phenylamino)-acetic acid [1-quinolin-4-yl-meth-(E)-ylidene]-hydrazide]
Ki [1]: > 10000 nM

Cn1cncc1/C=N/NC(=O)CNc1cccc(Cl)c1 [Example 92, (3-Chloro-phenylamino)-acetic acid [1-(3-methyl-3H-imidazol-4-yl)-meth-(E)-ylidene]-hydrazide]
Ki [1]: > 10000 nM

O=C(CNc1cccc(Cl)c1)N/N=C/c1ccsc1 [Example 93, (3-Chloro-phenylamino)-acetic acid [1-thiophen-3-yl-meth-(E)-ylidene]-hydrazide]
Ki [1]: > 10000 nM

O=C(CNc1cccc(Cl)c1)N/N=C/c1ccoc1 [Example 94, (3-Chloro-phenylamino)-acetic acid [1-furan-3-yl-meth-(E)-ylidene]-hydrazide]
Ki [1]: 1000 to 10000 nM

O=C(CNc1cccc(Cl)c1)NNCc1ccncc1 [Example 95, (3-Chloro-phenylamino)-acetic acid N′-pyridin-4-ylmethyl-hydrazide]
Ki [1]: > 10000 nM

O=C(CNc1cccc(C(=O)Nc2ccccc2)c1)N/N=C/c1ccncc1 [Example 96, N-Phenyl-3-{[1-pyridin-4-yl-meth-(E)-ylidene-hydrazinocarbonylmethyl]-amino}-benzamide]
Ki [1]: 100 to 1000 nM
Ki [2]: 10 to 100 nM

CC(Nc1cccc(Oc2ccccc2)c1)C(=O)N/N=C/c1c(Cl)cncc1Cl (centres unmarked) [Example 98, 2-(3-Phenoxy-phenylamino)-propionic acid [1-(3,5-dichloro-pyridin-4-yl)-meth-(E)-ylidene]-hydrazide]
Ki [1]: > 10000 nM

CC(Nc1cccc(Oc2ccccc2)c1)C(=O)N/N=C/c1ccncc1 (centres unmarked) [Example 99, 2-(3-phenoxy-phenylamino)-propionic acid [1-pyridin-4-yl-meth-(E)-ylidene]-hydrazide]
Ki [1]: > 10000 nM

COc1cc(NCC(=O)N/N=C/c2ccncc2)cc(OC)c1 [Example 100, (3,5-Dimethoxy-phenylamino)-acetic acid [1-pyridin-4-yl-meth-(E)-ylidene]-hydrazide]
Ki [1]: > 10000 nM

Dimethyl-carbamic acid 3-{[1-pyridin-4-yl-meth-(E)-ylidene-hydrazinocarbonyl-methyl]-amino}-phenyl ester [Example 101]
Ki [1]: > 10000 nM
